How the values were obtained:
renin = target: T1, renin (Homo sapiens, UniProt P00797); assay: in vitro inhibition of renin, radio immunoassay detection of Angiotensin I from an angiotensinogen-like substrate; type: biochemical; conditions: 10^-6 M concentration of test compound
T1 sequence (P00797 67-406): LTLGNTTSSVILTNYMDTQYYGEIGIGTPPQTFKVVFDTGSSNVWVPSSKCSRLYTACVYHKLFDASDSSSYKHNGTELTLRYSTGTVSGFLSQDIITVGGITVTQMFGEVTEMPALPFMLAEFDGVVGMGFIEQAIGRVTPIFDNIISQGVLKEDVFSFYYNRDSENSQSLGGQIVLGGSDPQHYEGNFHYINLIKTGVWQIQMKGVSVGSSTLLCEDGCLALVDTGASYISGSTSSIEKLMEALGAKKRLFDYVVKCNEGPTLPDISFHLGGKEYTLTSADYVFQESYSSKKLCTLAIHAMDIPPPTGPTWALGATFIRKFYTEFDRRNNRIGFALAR
Source text: The potent in vitro inhibition of the aspartyl protease renin was established using standard radio immunoassay techniques for the detection of Angiotensin I from an angiotensinogen-like substrate [Haber et al. (1969), J. Clin. Endocrinol. 29, 1349]. The results of these standard test procedures appears at the end of each Example of preparation of the relevant compound, as the percent inhibition of renin activity at […] concentration of test compound. The compounds of this invention have also shown strong resistance to breakdown by degradative enzymes such as chymotrypsin, following the procedure of Thaisrivongs et al. (1987) J. Med. Chem. 30, 536-541. […] Even after a 24 hour incubation, 68% of the compound of Example 1 remained. In accord with their ability to inhibit the enzyme renin, the compounds of this invention show plasma renin lowering effects and an antihypertensive action in a furosemide-stimulated high-renin model [De […]. et al. (1985), J. Cardiovascular Pharmacology 7, (Suppl. 4), S58-S61] with conscious rhesus monkeys, utilizing intravenous as well as oral dosing. For example, the product of Example 1 administered at 5 mg/kg iv lowered plasma renin activity (PRA) from 45 ng/ml/min to 5 ng/ml/min one half hour post-administration. Mean arterial pressure (MAP) was lowered 25 mm in that time period.

[1] = resistance to breakdown on incubation with chymotrypsin; type: in vitro ADME; conditions: read-out: remaining compound after incubation with chymotrypsin; for remaining at 1 h: incubation for one hour
Source text: The potent in vitro inhibition of the aspartyl protease renin was established using standard radio immunoassay techniques for the detection of Angiotensin I from an angiotensinogen-like substrate [Haber et al. (1969), J. Clin. Endocrinol. 29, 1349]. The results of these standard test procedures appears at the end of each Example of preparation of the relevant compound, as the percent inhibition of renin activity at […] concentration of test compound. The compounds of this invention have also shown strong resistance to breakdown by degradative enzymes such as chymotrypsin, following the procedure of Thaisrivongs et al. (1987) J. Med. Chem. 30, 536-541. For example, the compound of Example 1 was nearly unchanged upon incubation with chymotrypsin for one hour (93% remaining compound) whereas Boc-Phe Leu-ACHBA-OMe was extensively degraded (22% remaining compound) in the same time period. Even after a 24 hour incubation, 68% of the compound of Example 1 remained. In accord with their ability to inhibit the enzyme renin, the compounds of this invention show plasma renin lowering effects and an antihypertensive action in a furosemide-stimulated high-renin model [De Claviere, M. et al. (1985), J. Cardiovascular Pharmacology 7, (Suppl. 4), S58-S61] with conscious rhesus monkeys, utilizing intravenous as well as oral dosing. For example, the product of Example 1 administered at 5 mg/kg iv lowered plasma renin activity (PRA) from 45 ng/ml/min to 5 ng/ml/min one half hour post-administration. Mean arterial pressure (MAP) was lowered 25 mm in that time period.

[2] = tested on: conscious rhesus monkeys (furosemide-stimulated high-renin model); assay: furosemide-stimulated high-renin model with conscious rhesus monkeys; type: in vivo
[3] = orally at 50 ng/kg, one-half hour post-administration

Molecule | % I, percent inhibition of renin activity (renin) | further results
CC(C)C[C@H](NC(=O)[C@H](Cc1ccccc1)N1Cc2ccccc2C1=O)C(=O)NC(CC1CCCCC1)C(O)C(=O)OC(C)C (single isomer, unassigned) [Example 2 Diastereomer A, Beta-[[2-[[2-[1,3-dihydro-1-oxo-2H-isoindol-2-yl]-1-oxo-3-phenylpropyl]amino]-4-methyl-1-oxo-pentyl]amino]-alpha-hydroxycyclohexanebutanoic acid 1-methylethyl ester] | 98% | –
COC(=O)C(O)C(CC1CCCCC1)NC(=O)[C@H](CC(C)C)NC(=O)[C@H](Cc1ccccc1)NC(=O)OC(C)(C)C (stereo partly drawn) [Boc-Phe Leu-ACHBA-OMe, N-tertiary butyloxycarbonyl-Phe-Leu-3-amino-4-cyclohexyl-2-hydroxybutanoic acid methyl ester, reference compound] | – | remaining at 1 h [1]: 22%
COC(=O)C(O)C(CC1CCCCC1)NC(=O)[C@H](CC(C)C)NC(=O)[C@H](Cc1ccccc1)N1Cc2ccccc2C1=O (stereo partly drawn) [Example 1, Beta-[[2-[[2-[1,3-dihydro-1-oxo-2H-isoindol-2-yl]-1-oxo-3-phenylpropyl]amino]-4-methyl-1-oxo-pentyl]amino]-alpha-hydroxycyclohexanebutanoic acid methyl ester] | 97% | remaining at 24 h ([1]; 24 hour incubation): 68%; remaining at 1 h [1]: 93%; lowering of mean arterial pressure (MAP) ([2]; 5 mg/kg iv, one half hour post-administration): 25 mm; plasma renin activity (PRA) after administration ([2]; 5 mg/kg iv, one half hour post-administration, lowered from 45 ng/ml/min): 5 ng/mL/min; change in MAP [2, 3]: no significant change; decrease of PRA [2, 3]: 50%
COC(=O)C(O)C(CC1CCCCC1)NC(=O)[C@H](CC(C)C)NC(=O)[C@H](Cc1ccccc1)N1Cc2ncccc2C1=O (stereo partly drawn) [Example 3, Beta-[[2-[[-2-(1,3-dihydro-1-oxo-2H-pyrrolo[3,4-b]pyridin-2-yl)-1-oxo-3-phenylpropyl]amino]-4-methyl-1-oxopentyl]amino]-alpha-hydroxycyclohexanebutanoic acid methyl ester] | 89% | –
CC(C)OC(=O)C(O)C(CC1CCCCC1)NC(=O)[C@H](Cc1c[nH]cn1)NC(=O)[C@H](Cc1ccccc1)N1Cc2ccccc2C1=O (stereo partly drawn) [Example 5, Beta-[[2-[[2-(1,3-dihydro-1-oxo-2H-isoindol-2-yl)-1-oxo-3-phenylpropyl]amino]-3-(1H-imidazol-4-yl)-1-oxopropyl]amino]-alphahydroxycyclohexanebutanoic acid 1-methylethyl ester] | 83% | –
COC(=O)C(O)C(CC1CCCCC1)NC(=O)[C@H](CC(C)C)NC(=O)[C@H](Cc1ccccc1)N1C(=O)c2ccccc2C1=O (stereo partly drawn) [Example 6, Beta-[[2-[[2-(1,3-dihydro-1,3-dioxo-2H-isoindol-2-yl)-1-oxo-3-phenylpropyl]amino]-4-methyl-1-oxopentyl]amino]-alphahydroxycyclohexanebutanoic acid methyl ester] | 45% | –
COC(=O)C(O)C(CC1CCCCC1)NC(=O)[C@H](CC(C)C)NC(=O)[C@H](Cc1ccccc1)N1C(=O)c2cccc3cccc(c23)C1=O (some centres unmarked) [Example 8] | 74% | –
COC(=O)C(O)C(CC1CCCCC1)NC(=O)[C@H](CC(C)C)NC(=O)[C@H](Cc1ccccc1)N1CC(C)(C)OC1=O (stereo partly drawn) [Example 10, Beta-[[2-[[2-[5,5-dimethyl-2-oxo-3-oxazolidinyl]-1-oxo-3-phenylpropyl]amino]-4-methyl-1-oxo-pentyl]amino]-alphahydroxycyclohexanebutanoic acid methyl ester] | 86% | –
CCC[C@H](NC(=O)[C@H](Cc1ccccc1)N1Cc2ccccc2C1=O)C(=O)NC(CC1CCCCC1)C(O)C(=O)OC(C)C (stereo partly drawn) [Example 11, Beta-[[2-[[2-[1,3-dihydro-1-oxo-2H-isoindol-2-yl]-1-oxo-3-phenylpropyl]amino]-1-oxo-pentyl]amino]-alphahydroxycyclohexanebutanoic acid 1-methylethyl ester] | 99% | –
CC(C)C[C@H](NC(=O)[C@H](Cc1ccccc1)N1CCCC1=O)C(=O)NC(CC1CCCCC1)C(O)C(=O)OC(C)C (stereo partly drawn) [Example 14, Beta-[[2-[[2-[2-oxo-1-pyrrolidinyl]-1-oxo-3-phenylpropyl]amino]-4-methyl-1-oxo-pentyl]amino]-alpha-hydroxycyclohexanebutanoic acid 1-methylethyl ester] | 93% | –
CC(C)C[C@H](NC(=O)[C@H](Cc1ccccc1)N1C[C@@H]2CCCN2C1=O)C(=O)NC(CC1CCCCC1)C(O)C(=O)OC(C)C (stereo partly drawn) [Example 16, Beta-[[2-[[2-[(7aS)-tetrahydro-3-oxo-1H-pyrrolo[1,2-c]imidazol-2(3H)-yl]-1-oxo-3-phenylpropyl]amino]-4-methyl-1-oxo-pentyl]amino]-alpha-hydroxycyclohexanebutanoic acid 1-methylethyl ester] | 91% | –

Second part, led by results:

% I, percent inhibition of renin activity (renin) | Molecule | further results
84% | COC(=O)C(O)C(CC1CCCCC1)NC(=O)[C@H](Cc1c[nH]cn1)NC(=O)[C@H](Cc1ccccc1)N1Cc2ccccc2C1=O (stereo partly drawn) [Example 4, Beta-[[2-[[2-(1,3-dihydro-1-oxo-2H-isoindol-2-yl)-1-oxo-3-phenylpropyl]amino]-3-(1H-imidazol-4-yl)-1-oxopropyl]amino]-alpha-hydroxycyclohexane butanoic acid methyl ester] | –
9% | COC(=O)C(O)C(CC1CCCCC1)NC(=O)[C@H](Cc1c[nH]cn1)NC(=O)[C@H](Cc1ccccc1)N1C(=O)c2ccccc2C1=O (stereo partly drawn) [Example 7, Beta-[[2-[[2-(1,3-dihydro-1,3-dioxo-2H-isoindol-2-yl)-1-oxo-3-phenylpropyl]amino]-3-(1H-imidazol-4-yl)-1-oxopropyl]amino]-alphahydroxycyclohexanebutanoic acid methyl ester] | –
76% | COC(=O)C(O)C(CC1CCCCC1)NC(=O)[C@H](CC(C)C)NC(=O)[C@H](Cc1ccccc1)N1C(=O)OC(C)(C)C1C (stereo partly drawn) [Example 9, Beta-[[2-[[2-[4,5,5-trimethyl-2-oxo-3-oxazolidinyl]-1-oxo-3-phenylpropyl]amino]-4-methyl-1-oxo-pentyl]amino]-alphahydroxycyclohexanebutanoic acid methyl ester] | –
99% | CCCC[C@H](NC(=O)[C@H](Cc1ccccc1)N1Cc2ccccc2C1=O)C(=O)NC(CC1CCCCC1)C(O)C(=O)OC(C)C (stereo partly drawn) [Example 12, Beta-[[2-[[2-[1,3-dihydro-1-oxo-2H-isoindol-2-yl]-1-oxo-3-phenylpropyl]amino]-1-oxo-hexyl]amino]-alphahydroxycyclohexanebutanoic acid 1-methylethyl ester] | –
92% | CC(C)C[C@H](NC(=O)[C@H](Cc1ccccc1)N1Cc2cccc3cccc(c23)C1=O)C(=O)NC(CC1CCCCC1)C(O)C(=O)OC(C)C (stereo partly drawn) [Example 13, Beta-[[2-[[2-[1,3-dihydro-1-oxo-2H-benzisoquinolin-2-yl]-1-oxo-3-phenylpropyl]amino]-4-methyl-1-oxo-pentyl]amino]-alphahydroxycyclohexanebutanoic acid 1-methylethyl ester] | –
96% | Beta-[[2-[[2-[5-oxo-5H-imidazo[1,2-a]imidazol-6(7H)-yl]-1-oxo-3-phenylpropyl]amino]-4-methyl-1-oxo-pentyl]amino]-alpha-hydroxycyclohexanebutanoic acid 1-methylethyl ester [Example 15] | –
